From PubChem BioAssay (NCI)
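Exposure lasted 48 hours, with cells grown in 96-well plates and compounds tested at five concentrations. Abbreviation: GI50, concentration required for 50% inhibition of growth. TGI denotes the concentration required for complete inhibition of growth.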

Assays:
Test in all cases: NCI tumour cell line growth inhibition, 48 h
786-0 renal = system: 786-0 renal
BT-549 breast = system: BT-549 breast
DU-145 prostate = system: DU-145 prostate
TK-10 renal = system: TK-10 renal
RXF 393 renal = system: RXF 393 renal
M14 melanoma = system: M14 melanoma
UACC-62 melanoma = system: UACC-62 melanoma
SF-295 CNS = system: SF-295 CNS
SN12C renal = system: SN12C renal
UO-31 renal = system: UO-31 renal
HT29 colon = system: HT29 colon

| SMILES | TGI (786-0 renal) [µM] | TGI (BT-549 breast) [µM] | TGI (DU-145 prostate) [µM] | TGI (TK-10 renal) [µM] | TGI (RXF 393 renal) [µM] | TGI (M14 melanoma) [µM] | TGI (UACC-62 melanoma) [µM] | TGI (SF-295 CNS) [µM] | TGI (SN12C renal) [µM] | TGI (UO-31 renal) [µM] | TGI (HT29 colon) [µM] | GI50 (BT-549 breast) [µM] | GI50 (DU-145 prostate) [µM] | GI50 (TK-10 renal) [µM] | GI50 (M14 melanoma) [µM] | GI50 (UACC-62 melanoma) [µM] | GI50 (SN12C renal) [µM] | GI50 (HT29 colon) [µM] |
| --- | --- | --- | --- | --- | --- | --- | --- | --- | --- | --- | --- | --- | --- | --- | --- | --- | --- | --- |
| CC(=O)Oc1ccc(/C=C/C(=O)O[C@@H](C(=O)O)[C@@H](OC(=O)/C=C/c2ccc(OC(C)=O)c(OC(C)=O)c2)C(=O)O)cc1OC(C)=O | > 100 | > 100 | > 100 | > 100 | > 100 | > 100 | > 100 | > 100 | > 100 | > 100 |  |  |  |  |  |  |  |  |
| C[C@@H]1S[C@H](c2c(Cl)cccc2Cl)N2Cc3ccccc3N=C12 | > 100 | > 100 | > 100 | > 100 | > 100 | > 100 | > 100 | > 100 | > 100 | > 100 |  |  |  |  |  |  |  |  |
| N#C[C@H](c1nc2ccccc2s1)c1nc2ccccc2nc1Cl | > 100 | 21.4 |  |  | 32 | 34.1 | 31.4 | 35.7 | > 100 | 52 | > 100 |  |  |  |  |  |  |  |
| C[C@H](C/C=C/C(C)(C)O)[C@H]1CC[C@@]2(C)[C@@H]3CC[C@H]4C(C)(C)[C@@H](O)CC[C@@]45C[C@@]35CC[C@]12C | 46.5 | 56 | 28.8 | 27.1 |  | 44.5 | 56 | 30.2 | 27.9 | 53.6 | > 100 |  |  |  |  |  |  |  |
| COc1ccc(-n2sc3ncccc3c2=O)cc1 | 32.3 | 38.6 | > 100 | 33.5 |  | 41.3 | > 100 | > 100 | 91.3 | 33.7 | 43 |  |  |  |  |  |  |  |
| CSC1NC(c2ccc(Cl)cc2)=C(C#N)C(=O)N1C1OCC(OC(C)=O)C(OC(C)=O)C1OC(C)=O (stereo not drawn) | > 100 | > 100 | > 100 | > 100 |  | > 100 | > 100 | > 100 | > 100 | > 100 | > 100 |  |  |  |  |  |  |  |
| CCOC(=O)N(c1ccccc1)N(CC)C(=O)/C(C)=N/Nc1ccc([N+](=O)[O-])cc1 | 33.4 |  |  |  | 26.2 | 31.7 | 26.8 | 32.3 | 31.4 | 29.5 | 31 |  |  |  |  |  |  |  |
| Cc1nc2c(=S)n(C)ncc2[nH]1 | > 100 | > 100 |  | > 100 |  | > 100 | > 100 | > 100 | > 100 | > 100 | > 100 |  |  |  |  |  |  |  |
| CC(=O)NC(CC(C)C)C(=O)NC(Cc1ccccc1)C(=S)N1CCCC1 (stereo not drawn) | > 100 |  |  | > 100 | > 100 | > 100 | > 100 | > 100 | > 100 | > 100 | > 100 |  |  |  |  |  |  |  |
| O=C1Nc2ccccc2Nc2ccncc21 |  |  |  |  | > 100 |  | > 100 | > 100 | > 31.6 | > 100 | > 100 |  |  |  |  |  |  |  |
| COc1ccc(/C=C/C2=NN(c3cccc(S(=O)(=O)O)c3)C3(C2)SCC(=O)N3c2nc3ccccc3s2)cc1 (stereo not drawn) | > 100 | > 100 | > 100 | > 100 | > 100 | > 100 | > 100 |  | > 100 | > 100 | > 100 |  |  |  |  |  |  |  |
| Cc1cc(=O)[nH]c(NN2C(Cl)C(=O)C2c2cccc(Cl)c2)n1 (stereo not drawn) |  |  |  | > 100 | 23.2 | 35.4 | 87.2 |  | 62 | 87.6 | 76.8 |  |  |  |  |  |  |  |
| Cn1c(N/N=C/c2ccccc2)nc(-c2ccc([N+](=O)[O-])cc2)c(C#N)c1=O | > 100 |  | > 100 | > 100 | > 100 | > 100 | 97.5 | > 100 | > 100 | > 100 | > 100 |  |  |  |  |  |  |  |
| Clc1ccc(OCc2nn3c(CCc4nnc5sc(COc6ccc(Cl)cc6)nn45)nnc3s2)cc1 | > 100 |  | 44.2 | 80.7 | 61.2 | > 100 |  | > 100 |  | 3.03 | > 100 |  |  |  |  |  |  |  |
| O=C(NC(=S)NC(=O)c1cc(O)c(O)c(O)c1)c1cc(O)c(O)c(O)c1 | 40.2 |  | 63.8 | 61.3 | 41.5 | 98.6 | 49.4 | 46.3 | 53.7 | 44.1 | 65.5 |  |  |  |  |  |  |  |
| COc1cc(C2c3cc4c(cc3OC(NCCO)C2C)OCO4)cc(OC)c1OC (stereo not drawn) | > 100 | > 100 | > 100 | > 96.3 | > 100 | > 45 | > 100 |  | > 100 | > 76.4 | 21.4 |  |  |  |  |  |  |  |
| COc1cccc(-c2cc(=O)c3ccccc3[nH]2)c1 | > 100 |  |  | > 100 | 21 | > 100 | > 100 | 14.8 | > 100 | > 100 | > 100 |  |  |  |  |  |  |  |
| COc1cc(N(Cc2ccc3oc(=O)c(-c4ccccc4)nc3c2)Cc2ccc3oc(=O)c(-c4ccccc4)nc3c2)cc(OC)c1OC | > 10 |  | > 10 | > 10 | > 10 | > 10 | > 10 | > 10 | > 10 | > 10 | > 10 |  |  |  |  |  |  |  |
| COc1ccc2c(OCc3nnc4ccc(-c5ccccc5)nn34)ccnc2c1 |  | > 100 | > 100 | > 100 |  | > 100 | > 100 |  | > 100 |  | > 100 | > 100 | > 100 | > 100 | > 100 | > 100 | > 100 | > 100 |
| Cc1ccccc1NC(=O)Cc1csc2[n+]1C(=O)/C(=C/c1ccc([N+](=O)[O-])cc1)S2 | > 100 | 38.6 | > 100 | 56.3 |  | > 100 |  | > 100 | > 100 | 85.5 | > 100 |  |  |  |  |  |  |  |
| CCc1ccccc1NNc1cc(=O)[nH]c(=O)[nH]1 | 32.5 | 41.4 | > 100 |  | 40.1 | 35.1 | 35.9 | 36.2 | 39 | 31.1 | 39.3 |  |  |  |  |  |  |  |
